Reference: ChEMBL document CHEMBL1201862, “PubChem BioAssay data set” (2004)
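In this assay, cells in 96-well plates receive the compound at five concentrations for 48 hours. Endpoints are linearly interpolated between the surrounding concentrations. GI50 is the concentration that inhibits growth by half.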 Active and inactive are the calls of the source. Cut-off read from the data, not from the text of the source: active = GI50 up to about 1.1 µM and inactive = higher.

What was measured:
Test in all cases: NCI-60 cell line screen, 48 h
HOP-18 = tested on: HOP-18
XF498 = tested on: XF498
DMS-273 = tested on: DMS-273
DMS-114 = tested on: DMS-114
M19-MEL = tested on: M19-MEL
KM-20L2 = tested on: KM-20L2
RXF 631 = tested on: RXF 631
LXFL 529 = tested on: LXFL 529
DLD-1 = tested on: DLD-1

Measured: GI50

CC1=CC=C2C(C)(C)CC[C@@H]3OC(=O)[C@H]1[C@]23C
inactive: HOP-18 > 100 µM | XF498 > 100 µM | DMS-273 > 100 µM | DMS-114 > 100 µM | M19-MEL > 100 µM | KM-20L2 > 100 µM | RXF 631 > 100 µM | LXFL 529 > 100 µM | DLD-1 > 100 µM

CCOC(=O)CC(C)C1(C(=O)OCC)CCCCC1=O (stereo not drawn)
inactive: HOP-18 > 100 µM | XF498 > 100 µM | DMS-273 15 µM | DMS-114 20.3 µM | M19-MEL > 100 µM | KM-20L2 98.9 µM | RXF 631 > 100 µM | LXFL 529 > 100 µM | DLD-1 35 µM
